Broadly, the melting point is the temperature, or range, at which the solid turns liquid.

Our source for the melting point and IC50 values is US7241745B2, “Pyridyl alkene and pyridyl alkine acid amides as cytostatics and immunosupressives” (Astellas Pharma GmbH, priority 1996, dated 2007).

In one data set the test system is HepG2 cells. Briefly: Growth inhibition of HepG2 cells, sulforhodamin-B protein determination after six days of incubation. The data set is classed as cell-based. The conditions noted are these: Homo sapiens, 144 h, six days of substance incubation, sulforhodamin-B-method, read-out: IC50-value (concentration in which the cell growth was inhibited by 50%). As for the experimental part: The tumor growth inhibiting activity of the substances was determined on human tumor cells in standardized in vitro test systems. In the screening tests, the substances gave IC50-values in a concentration range of 0.1 nM to 10 μM.
HepG2 cells plated at a 20,000 cell/ml in 12-well plastic dishes. Cultivation occured in Richters IMEM-ZO nutrient medium with 5% fetal calf serum (FCS) in a tissue culture incubator with a gas mixture of 5% CO2 and 95% air at a temperature of 37° C. One day after plating, the culture medium was aspirated from the cells and replaced by fresh medium which contained the respective concentrations of the test substances. For the individual concentrations and the controls without test substances, three-fold batches were done for each. Three days after the beginning of treatment, the medium was again renewed with the test compounds. After six days of substance incubation, the test was ended and the protein amount in the individual wells was determined with the sulforhodamin-B-method (according to P. Skehan et al.: New Colorimetric Cytotoxicity Assay for Anticancer-Drug Screening. J. Natl. Cancer Inst. 82: 1107–1112, 1990). The IC50-values (defined as that concentration in which the cell growth was inhibited by 50%) was taken from the dose-response curves and given as a comparative measurement for the activity of the test compounds.

For data set [1], the system named is freshly isolated lymphocytes from the spleen of a Swiss mouse. In words: Immunosuppressing activity: vitality of freshly isolated spleen lymphocytes by flow-through cytometry after 2 days. The data set is classed as cell-based. The conditions noted are these: Lymphocyte, 48 h, 2 days incubation, flow-through cytometer, read-out: IC50 (percentage amount of vital cells). From the text: Many anti-tumor agents have not only a cytotoxic effect on tumor cells, but also on the blood cell system. This leads to a weakening of the immune defense, which can, in turn, be specifically employed to suppress the rejection reaction after an organ transplantation for example. Therefore, a use of the main compounds, optionally in combination with other compounds effective for these indications is suitable in diseases such as psoriasis or autoimmune diseases. In order to test the possibility for a therapeutic use in illnesses of this type, the substance activity was tested on freshly isolated lymphocytes as follows:
The spleen of a Swiss mouse served as a lymphocyte source. The lymphocyte population was isolated from the spleen cell suspension over a ficoll gradient and taken up in IMEM-ZO culture medium with 0,1% dextran 70,000 and 2% fetal calf serum. […] Subsequently, 10,000 cells per each sample were measured on a flow-through cytometer and the percentage amount of vital cells in the population was determined. By means of the dose-response curves, IC50-values were calculated which were also employed in the following Tables for the characterization of the individual substances: […]

Consider `O=C(C=CC=Cc1cccnc1)NCCCCC1CCN(C(c2ccccc2)c2ccccc2)CC1` [compound 70, N-[4-(1-diphenylmethyl-piperidin-4-yl)-butyl]-5-(pyridin-3-yl)-2,4-pentadienoic acid amide], for which the melting point lay in the range of 164 to 166 °C.

`O=C(C=Cc1cccnc1)NCCCCC1CCN(C(=O)Nc2cccc3ccccc23)CC1` [compound 195, N-{4-[1-(1-naphthylaminocarbonyl)-piperidin-4-yl]-butyl}-3-(pyridin-3-yl)-acrylamide] showed a melting point of 198 to 200 °C.

On to `O=C(C=Cc1cccnc1)NCCCCC1CCN(C(=O)c2ccccc2)CC1` [compound 159, N-[4-(1-benzoylpiperidin-4-yl)-butyl]-3-(pyridin-3-yl)-acrylamide], for which the IC50 with HepG2 cells came to 0.5 nM; in data set [1] it was 3 nM. The molecule `O=C(C=Cc1cccnc1)NCCCCC1CCN(S(=O)(=O)c2ccc3ccccc3c2)CC1` [compound 219, N-{4-[1-(2-naphthyl-sulfonyl)-piperidin-4-yl]-butyl}-3-(pyridin-3-yl)-acrylamide] gave a melting point of 85 to 87 °C.

The molecule `O=C(C=Cc1cccnc1)NCCCCC1CCN(C(=O)C(c2ccccc2)c2ccccc2)CC1` [compound 150, N-[4-(1-diphenylacetyl-piperidin-4-yl)-butyl]-3-(pyridin-3-yl)-acrylamide] registered a melting point of 161 °C.

Molecule `O=C(C=Cc1cccnc1)NCCCCC1CCN(C2c3ccccc3CSc3ccccc32)CC1` (stereo not shown) [compound 136, N-{4-[1-(6,11-dihydro-dibenzo [b,e]thiepin-11-yl)-piperidin-4-yl]-butyl}-3-(pyridin-3-yl)-acrylamide] had a melting point of 89 to 91 °C.
